Measurements: patent US4910152A, “Method for binding opioid receptors” (priority 1986, dated 1990)
Entries after “also recorded” stand apart in the source; their conditions may differ.

Legend:
[1] = target: T1, opioid receptors in rat brain membrane preparations (Rattus norvegicus, UniProt P33535); assay: 3H-DHM displacement from rat brain membranes (Example 4 method); settings: 3H-DHM displacement
Experimental: (§1) The data was analyzed, using the program LIGAND of Munson and Rodbard.

[2] = system: guinea pig ileum longitudinal muscle preparation; assay: Electrically stimulated guinea pig ileum longitudinal muscle (Example 5); assay type: cell-based
Experimental: 6-FN was tested for activity on an electrically stimulated guinea pig ileum longitudinal muscle preparation. In this test, a specimen of guinea pig ileum was stretched between two wires in a nutrient solution (2.5 mil.) and stimulated supramaximally at 0.1 Hz. In the absence of opioid agonists and antagonists electrical stimulation of the muscle results in contraction.

[3] = target: T1, opioid receptors in rat brain membrane preparations; assay: biochemical
Experimental: as §1

[4] = target: opioid receptor sites (3H-DALE); assay: Site selectivity displacement, 3H-DALE indicator (with cold DHM); assay type: binding; settings: 0.43 nM cold DHM and 0.43 nM DALE*; determined graphically
Source text: In FIG. 1 it will be noted that compounds which displace the two indicator ligands differently provide a curve which is convex towards the axis of the labeled indicator ligand which is less favorably displaced.

[5] = feeding induced by 2-deoxy-D-glucose; cited from earlier work
[6] = system: opioid receptors; settings: Hahn, Pasternak et al.; cited from earlier work

T1 sequence (P33535 whole entry): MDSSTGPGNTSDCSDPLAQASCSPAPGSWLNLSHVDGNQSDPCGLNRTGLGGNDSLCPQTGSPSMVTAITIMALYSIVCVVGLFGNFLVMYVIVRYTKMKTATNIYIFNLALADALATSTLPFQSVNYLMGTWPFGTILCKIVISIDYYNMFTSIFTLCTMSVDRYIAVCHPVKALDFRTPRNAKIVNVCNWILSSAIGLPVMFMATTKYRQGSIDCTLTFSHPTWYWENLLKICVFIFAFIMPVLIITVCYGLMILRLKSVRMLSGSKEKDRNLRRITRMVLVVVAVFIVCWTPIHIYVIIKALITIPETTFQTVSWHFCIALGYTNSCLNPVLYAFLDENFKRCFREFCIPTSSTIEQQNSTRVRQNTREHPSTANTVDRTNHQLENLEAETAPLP

C=CCN1CC[C@]23c4c5ccc(O)c4O[C@H]2C(=NNC(=S)Nc2ccc4c(c2)C(=O)OC42c4ccc(O)cc4Oc4cc(O)ccc42)CC[C@@]3(O)[C@H]1C5 [6-FN, 1-(N)-Fluoresceinyl Naloxone Thiosemicarbazone]
Hill coefficient [1]: 0.671
binding activity in synaptosomal membranes (in words) ([1]; rat brain synaptosomal membranes): sufficient binding activity
reversibility of 6-FN partial agonist activity by naloxone ([2]; 10^-6 M 6-FN, 10^-7 M naloxone): reversible with 10^-7 M naloxone
agonist activity of 6-FN in ileum ([2]; 10^-6 M (FIG. 2)): partial agonist activity; also recorded: slight agonist effect
inhibition of the agonist effect of normorphine ([2]; final 6-FN concentration 10^-7 M, added prior to normorphine): significantly inhibited the agonist effect of normorphine
antagonist effect relative to naloxone ([2]; inhibition of agonist effect of normorphine, compared with naloxone): ten times less effective
elimination of antagonist effect by washing ([2]; washing of the ileum specimen): did not readily eliminate the antagonist effect
Kd [3]: 11.5 nM
IC50 [4]: 17 nM

O=C1CC[C@@]2(O)[C@H]3Cc4ccc(O)c5c4[C@@]2(CCN3CC2CC2)[C@H]1O5 [naltrexone]
suppression of feeding [5]: effective in suppressing feeding

C=CCN1CC[C@]23c4c5ccc(O)c4O[C@H]2C(=NN=C2CC[C@@]4(O)[C@H]6Cc7ccc(O)c8c7[C@@]4(CCN6CC=C)[C@H]2O8)CC[C@@]3(O)[C@H]1C5 [naloxone azine]
persistence of binding (in words) [6]: long lasting effect
